Results on 15 molecules are retold here after patent EP4772509A1, “KINESIN KIF18A INHIBITOR, AND APPLICATION THEREOF” (Shanghai Apeiron Therapeutics Company Limited, priority 2023, dated 2025).

Read-outs that look alike come from different tables or passages of the source.

One test concerns OVCAR3 cells. Briefly: Cell proliferation activity test (CyQUANT Direct). The test is classed as cell-based. The following applies: 3 days, 0.2% DMSO, CyQUANT fluorescence. The gist of the method:
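OVCAR3 cells in RPMI-1640 with 10% FBS were seeded, then treated overnight later with compound at final 0–10 µM (0.2% DMSO) for 3 days at 37°C, 5% CO2. Proliferation was read as CyQUANT Direct fluorescence after 60 min at 37°C.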

The test system of another test is HT29 cells. Briefly: CyQuant cell proliferation activity test. The test is classed as cell-based. The following applies: HT29 at 2000 cells per well, 3 days, 0.2% DMSO, XLFIT. Here is the method: Materials and Cells: HT29 cells were purchased from Nanjing Cobioer Biosciences Co., Ltd.; RPMI-1640 medium, fetal bovine serum, Trypsin-EDTA (0.25%), 96-well plates, and CyQuant reagents were purchased from ThermoFisher (USA); DMSO was purchased from SIGMA (USA).
Cell Culture: HT29 cells were cultured with RPMI-1640 containing 10% fetal bovine serum under the condition of 37°C and 5% CO2. Only cells in the logarithmic growth phase could be used for the test.
Cell Proliferation Activity Test: CyQuant reagent was used to detect the proliferation inhibitory activity of compounds on HT29 cells. The cell density was adjusted, and 100 µL per well was inoculated into a 96-well plate (HT29 at 2000 cells per well), then incubated overnight at 37°C and 5% CO2. Add compounds of various target concentrations (initial concentration of 3000 nM, 3-fold dilution, 9 concentration gradients), and make the DMSO content 0.2%. The cell plate was incubated at 37°C in 5% CO2 for 3 days. CyQuant reagent was added and incubated for 1 h. The plates were read by Envision, and IC50 was calculated using XLFIT.

Test [1] has as its target T1, Human KIF18A (amino acid sequence 1-417) (Homo sapiens, UniProt Q8NI77).
T1 construct: purchased Viva Biotech (Shanghai) Ltd
T1 sequence (Q8NI77 1-417): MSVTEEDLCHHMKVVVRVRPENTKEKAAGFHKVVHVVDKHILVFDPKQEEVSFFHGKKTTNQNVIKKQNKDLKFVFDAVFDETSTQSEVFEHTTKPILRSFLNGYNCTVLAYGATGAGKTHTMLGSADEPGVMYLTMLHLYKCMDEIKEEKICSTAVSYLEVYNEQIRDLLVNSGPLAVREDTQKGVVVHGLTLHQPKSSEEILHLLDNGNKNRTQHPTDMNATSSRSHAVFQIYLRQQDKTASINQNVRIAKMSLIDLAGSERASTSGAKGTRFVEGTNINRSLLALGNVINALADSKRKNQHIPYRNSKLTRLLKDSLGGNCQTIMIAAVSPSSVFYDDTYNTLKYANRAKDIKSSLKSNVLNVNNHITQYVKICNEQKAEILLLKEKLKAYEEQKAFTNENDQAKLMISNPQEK
The test is described as follows: Enzymatic activity test (ADP-Glo, microtubule-stimulated ATPase). The following applies: 60 µg/mL microtubules, 25 µM ATP, 2.5 nM KIF18A protein, 120 min at ambient temperature, chemiluminescence. It is filed as biochemical. The gist of the method:
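KIF18A (1-417) at 2.5 nM with 60 µg/mL microtubules and 25 µM ATP, compounds at 0-10 µM final, reacted 120 min at ambient temperature. ADP formed was read by ADP-Glo chemiluminescence after two 30 min room-temperature steps.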
For orientation: In ADP-Glo the light output rises with the ADP produced.

For the molecule `Cc1cc2nc(n1)N1CCC(F)(F)[C@@H](CCCC3CCN(CC3)c3cc(NS(=O)(=O)CCO)ccc3-n3cc-2nn3)C1` [Example 85, N-((1^3S,Z)-1^4,1^4-difluoro-2^6-methyl-3^1H-2(2,4)-pyrimidin-1(1,3),5(1,4)-dipiperidin-3(4,1)-triazole-4(1,2)-benzylcyclooctyl-4^4-yl)-2-hydroxyethane-1-sulfonamide], the IC50 (commonly the concentration needed to halve the response being measured) in the test on OVCAR3 cells (Homo sapiens, OVCAR-3, 72 h) was 60 nM; with HT29 cells (Homo sapiens, HT-29, 72 h), 76 nM; in test [1] (read-out: KIF18A IC50) it was 350 nM.

For “N-((1^3R,Z)-1^4,1^4-difluoro-5^1-hydroxy-2^6-methyl-4-oxo-5^2,5^3-dihydro-5^1H-3-aza-2(2,4)-pyrimidin-1(1,3),6(1,4)-dipiperi din-5(4,5)-indenoheterocyclonon-8-en-5^7-yl)-2-hydroxyethane-1-sulfonamide [Example 7]”, the IC50 in the test on OVCAR3 cells came to 41 nM; with HT29 cells (read-out: HT-29 IC50), 26 nM; in test [1] (read-out: KIF18A IC50), 51 nM.

For the molecule `Cc1cc2nc(n1)N1CCC(F)(F)[C@@H](CCCC3CCN(CC3)c3cc(NS(=O)(=O)CCO)c4c(c3C(=O)N2)CCC4=O)C1` [Example 10, N-((1^3S)-1^4,1^4-difluoro-2^6-methyl-5^1,4-dioxo-5^2,5^3-dihydro-5^1H-3-aza-2(2,4)-pyrimidin-1(1,3),6(1,4)-dipiperidin-5(4,5) -indenobicyclononane-5^7-yl)-2-hydroxyethane-1-sulfonamide], the IC50 was 36 nM in the test with OVCAR3 cells (Homo sapiens, OVCAR-3, 72 h); 39 nM with HT29 cells (Homo sapiens, HT-29, 72 h); 43 nM in test [1] (read-out: KIF18A IC50).

In the case of `Cc1cc2nc(n1)N1CCC(F)(F)[C@@H](CCCC3CCN(CC3)c3cc(NS(=O)(=O)CCO)c4c(c3C(=O)N2)CCC4=O)C1` [Example 6, N-((1^3S)-1^4,1^4-difluoro-2^6-methyl-5^1,4-dioxo-5^2,5^3-dihydro-5^1H-3-aza-2(2,4)-pyrimidin-1(1,3),6(1,4)-dipiperidin-5(4,5) -indenoheterocyclononane-5^7-yl)-2-hydroxyethane-1-sulfonamide], the IC50 was determined as 41 nM in the test on OVCAR3 cells (Homo sapiens, OVCAR-3, 72 h); 41 nM in the test with HT29 cells (Homo sapiens, HT-29, 72 h); 73 nM in test [1] (read-out: KIF18A IC50).

As to `Cc1cc2nc(n1)N1CCC(F)(F)C(C=CCC3CCN(CC3)c3cc(NS(=O)(=O)CCO)c4c(c3C(=O)N2)CCC4=O)C1` (single isomer, unassigned) [Example 2D, N-(1^4,1^4-difluoro-2^6-methyl-5^1,4-dioxo-5^2,5^3-dihydro-5^1H-3-aza-2(2,4)-pyrimidin-1(1,3),6(1,4)-dipiperidin-5(4,5)-indenoheterocyclonon-8-en-5^7-yl)-2-hydroxyethane-1-sulfonamide], the IC50 was 679 nM with OVCAR3 cells, 679 nM in the test on HT29 cells (read-out: HT-29 IC50) and 546 nM in test [1] (read-out: KIF18A IC50).

Turning to `Cc1cc2nc(n1)N1CCC(F)(F)C(/C=C/CC3CCN(CC3)c3cc(NS(=O)(=O)CCO)c4c(c3C(=O)N2)OCC4=O)C1` (stereo not drawn) [Example 14A, N-(1^4,1^4-difluoro-2^6-methyl-5^3,4-dioxo-5^2,5-dihydro-3-aza-2(2,4)-pyrimidin-1(1,3),6(1,4)-dipiperidin-5(7,6)-benzofurancyclononane-8-en-5^4-yl)-2-hydroxyethane-1-sulfonamide], the IC50 turned out to be 635 nM in the test on OVCAR3 cells (Homo sapiens, OVCAR-3, 72 h); 837 nM in the test with HT29 cells (Homo sapiens, HT-29, 72 h); 44 nM in test [1] (read-out: KIF18A IC50).

As for `Cc1cc2nc(n1)N1CCC(F)(F)C(/C=C/CC3CCN(CC3)c3cc(NS(=O)(=O)CCO)c(C(=O)C4CC4)cc3-n3cc-2nn3)C1` (stereo not drawn) [Example 89, N-((3^4Z,7E)-4^5-(cyclopropanecarbonyl)-1^4,1^4-difluoro-2^6-methyl-3^1H-2(2,4)-pyrimidin-1(1,3),5(1,4)-dipiperidin-3(4,1) -triazole-4(1,2)-benzocyclooct-7-en-4^4-yl)-2-hydroxyethane-1-sulfonamide], the IC50 in the test with OVCAR3 cells (Homo sapiens, OVCAR-3, 72 h) is 171 nM; in the test on HT29 cells (Homo sapiens, HT-29, 72 h), 173 nM; in test [1] (read-out: KIF18A IC50), 1700 nM.

With `Cc1cc2nc(n1)N1CCC(F)(F)C(CCCc3ccn(c(=O)c3)-c3cc(NS(=O)(=O)CCO)ccc3C(=O)N2)C1` (stereo not drawn) [Example 52, N-(1^4,1^4-difluoro-2^6-methyl-6^2,4-dioxo-6^1,6^2-dihydro-3-aza-2(2,4)-pyrimidin-6(1,4)-pyridin-1(1,3)-piperidin-5(1,2)-phenylheterocyclononane-5^4-yl)-2-hydroxyethane-1-sulfonamide], the IC50 in the test on OVCAR3 cells (Homo sapiens, OVCAR-3, 72 h) is over 3000 nM; in the test on HT29 cells (Homo sapiens, HT-29, 72 h) it was over 3000 nM; in test [1] (read-out: KIF18A IC50), 555 nM.

Take `Cc1cc2nc(n1)N1CCC(F)(F)C(/C=C\Cc3ccc(cc3)-c3cc(NS(=O)(=O)CCO)ccc3C(=O)N2)C1` (stereo not drawn) [Example 42, N-(1^4,1^4-difluoro-2^6-methyl-4-oxo-3-aza-2(2,4)-pyrimidin-1(1,3)-piperidin-5(1,2),6(1,4)-diphenylheterocyclonon-8-en-5^4-yl)-2-hydroxyethane-1-sulfonamide]: the IC50 turned out to be 136 nM in the test on OVCAR3 cells (Homo sapiens, OVCAR-3, 72 h); 162 nM in the test with HT29 cells (Homo sapiens, HT-29, 72 h); 167 nM in test [1] (KIF18A IC50 nM).

For the molecule `Cc1cc2nc(n1)N1CCC(F)(F)C(CCCc3ccc(cc3)-c3cc(NS(=O)(=O)CCO)ccc3C(=O)N2)C1` (stereo not drawn) [Example 44, N-((1^3S,Z)-1^4,1^4-difluoro-2^6-methyl-3^1H-2(2,4)-pyrimidin-1(1,3),5(1,4)-dipiperidin-3(4,1)-triazole-4(1,2)-benzylcyclooctyl-4^4-yl)-2-hydroxyethane-1-sulfonamide], the IC50 with OVCAR3 cells (Homo sapiens, OVCAR-3, 72 h) was 27 nM; in the test with HT29 cells (Homo sapiens, HT-29, 72 h), 39 nM; in test [1] (read-out: KIF18A IC50), 83 nM.

For the molecule `Cc1cc2nc(n1)N1CCC(F)(F)C(C=CCC3CCN(CC3)c3cc(NS(=O)(=O)CCO)c4c(c3C(=O)N2)CCC4=O)C1` (single isomer, unassigned) [Example 2C, N-(1^4,1^4-difluoro-2^6-methyl-5^1,4-dioxo-5^2,5^3-dihydro-5^1H-3-aza-2(2,4)-pyrimidin-1(1,3),6(1,4)-dipiperidin-5(4,5)-indenoheterocyclonon-8-en-5^7-yl)-2-hydroxyethane-1-sulfonamide], the IC50 in the test on OVCAR3 cells was 25 nM; in the test with HT29 cells (read-out: HT-29 IC50), 25 nM; in test [1] (read-out: KIF18A IC50), 43 nM.

As for `Cc1cc2nc(n1)N1CCC(F)(F)C(/C=C/CC3CCN(CC3)c3cc(NS(=O)(=O)CCO)c4c(c3C(=O)N2)CCNC4=O)C1` (stereo not drawn) [Example 17, N-(6^4,6^4-difluoro-5^6-methyl-2^1,3-dioxo-2^1,2^2,2^3,2^4-tetrahydro-4-aza-2(6,5)-isoquinoline-5(4,2)-pyrimidin-1(1,4),6(1,3)-dipiperidinylcyclononane-7-en-2^8-yl)-2-hydroxyethane-1-sulfonamide], the IC50 in the test on OVCAR3 cells (Homo sapiens, OVCAR-3, 72 h) is 96 nM; with HT29 cells (Homo sapiens, HT-29, 72 h) it was 105 nM; in test [1] (read-out: KIF18A IC50), 52 nM.

Take `Cc1cc2nc(n1)N1CCC(F)(F)C(C=CCc3ccc(cc3)-c3cc(NS(=O)(=O)CCO)ccc3C(=O)N2)C1` (stereo not drawn) [Example 55, N-(1^4,1^4-difluoro-2^6-methyl-4-oxo-3-aza-2(2,4)-pyrimidin-1(1,3)-piperidin-5(1,2),6(1,4)-diphenylheterocyclonon-8-en-5^4-yl)-2-hydroxyethane-1-sulfonamide]: the IC50 in the test with OVCAR3 cells (Homo sapiens, OVCAR-3, 72 h) turned out to be 30 nM; with HT29 cells (Homo sapiens, HT-29, 72 h), 29 nM; in test [1] (read-out: KIF18A IC50), 88 nM.

For `Cc1cc2nc(n1)N1CCC(F)(F)C(C=CCC3CCN(CC3)c3cc(NS(=O)(=O)CCO)c4c(c3C(=O)N2)CNC4=O)C1` (stereo not drawn) [Example 16, N-(6^4,6^4-difluoro-5^6-methyl-2^1,3-dioxo-2^2,2^3-dihydro-2^1H-4-aza-2(5,4)-isoindole-5(4,2)-pyrimidin-1(1,4),6(1,3)-dipiperidineheterocyclonon-7-en-2^7-yl)-2-hydroxyethane-1-sulfonamide], the IC50 in the test with OVCAR3 cells worked out at 89 nM; in the test with HT29 cells (read-out: HT-29 IC50) it was 95 nM; in test [1] (read-out: KIF18A IC50), 45 nM.

`Cc1cc2nc(n1)N1CCC(F)(F)C(/C=C\CC3CCN(CC3)c3cc(NS(=O)(=O)CCO)c4c(c3C(=O)N2)OCC4=O)C1` (stereo not drawn) [Example 14B, N-(1^4,1^4-difluoro-2^6-methyl-5^3,4-dioxo-5^2,5-dihydro-3-aza-2(2,4)-pyrimidin-1(1,3),6(1,4)-dipiperidin-5(7,6)-benzofurancyclononane-8-en-5^4-yl)-2-hydroxyethane-1-sulfonamide]: the IC50 was over 3000 nM in the test on OVCAR3 cells (Homo sapiens, OVCAR-3, 72 h); over 3000 nM in the test with HT29 cells (Homo sapiens, HT-29, 72 h); 307 nM in test [1] (read-out: KIF18A IC50).
